Assay results taken from PubChem BioAssay AID1963864 (Molecular Pharmacology Branch, DTP, NCI, 2024).

Tested on: KRAS PDC multicell spheroid viability
Test: Anticancer human tumor 521955-158-R6-J3-PDC patient-derived pancreatic carcinoma cell line growth inhibition [KRAS2]
Settings: for IC50: curve of first compound; for viability, T/C: stronger effect = lower value
Outline: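 Combination screen of spheroid viability in tumor-cell co-cultures with endothelial (HUVEC) and mesenchymal stem cell stroma. Each agent was tested in half-log dilutions, topping at clinical Cmax or at 10 microM without a known Cmax.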

[1] = second compound 0.1 µM, first compound 0.0316 µM
[2] = second compound 0.1 µM, first compound 0.1 µM
[3] = second compound 0.1 µM, first compound 0.316 µM
[4] = second compound 0.1 µM, first compound 1 µM
[5] = second compound 0.1 µM, first compound 3.16 µM
[6] = second compound 0.316 µM, first compound 0.0316 µM
[7] = second compound 0.316 µM, first compound 0.1 µM
[8] = second compound 0.316 µM, first compound 0.316 µM
[9] = second compound 0.316 µM, first compound 1 µM
[10] = second compound 0.316 µM, first compound 3.16 µM
[11] = second compound 1 µM, first compound 0.0316 µM
[12] = second compound 1 µM, first compound 0.1 µM
[13] = second compound 1 µM, first compound 0.316 µM
[14] = second compound 1 µM, first compound 1 µM
[15] = second compound 1 µM, first compound 3.16 µM
[16] = second compound 3.16 µM, first compound 0.0316 µM
[17] = second compound 3.16 µM, first compound 0.1 µM
[18] = second compound 3.16 µM, first compound 0.316 µM
[19] = second compound 3.16 µM, first compound 1 µM
[20] = second compound 3.16 µM, first compound 3.16 µM
[21] = second compound 10 µM, first compound 0.0316 µM
[22] = second compound 10 µM, first compound 0.1 µM
[23] = second compound 10 µM, first compound 0.316 µM
[24] = second compound 10 µM, first compound 1 µM
[25] = second compound 10 µM, first compound 3.16 µM
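Also: drug exposure lasted seven days.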
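For viability, T/C in this document: 100% = DMSO vehicle wells and lower means fewer viable cells.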

`CC1COCCN1c1cc(-c2ccnn2C)c2ccnc(-c3ccn[nH]3)c2n1` (stereo not given) + CC1OCC2(CCN(c3cnc(Sc4ccnc(N)c4Cl)c(N)n3)CC2)C1N was tested, and the IC50 (second compound 0.1 µM) was > 3.16 µM, the IC50 (second compound 0.316 µM) was > 3.16 µM and the IC50 (second compound 1 µM) was > 3.16 µM. For the same compound, the IC50 (second compound 3.16 µM) was > 3.16 µM, the IC50 (second compound 10 µM) was > 3.16 µM and the viability, T/C (second compound 0.1 µM, first compound 0.01 µM) was 87.9%. It also gave a viability, T/C [1] of 81.1%, a viability, T/C [2] of 73.9% and a viability, T/C [3] of 67.6%. It also gave a viability, T/C [4] of 67.3%, a viability, T/C [5] of 75.2% and a viability, T/C (second compound 0.316 µM, first compound 0.01 µM) of 89.9%. For the same compound, the viability, T/C [6] was 84.5%, the viability, T/C [7] was 74.6% and the viability, T/C [8] was 64.3%. The viability, T/C [9] was 71.2%, the viability, T/C [10] was 64.4% and the viability, T/C (second compound 1 µM, first compound 0.01 µM) was 91.9%. It also gave a viability, T/C [11] of 84.8%, a viability, T/C [12] of 81.4% and a viability, T/C [13] of 76.7%. For the same compound, the viability, T/C [14] was 68.3%, the viability, T/C [15] was 61% and the viability, T/C (second compound 3.16 µM, first compound 0.01 µM) was 102%. For the same compound, the viability, T/C [16] was 109%, the viability, T/C [17] was 99.9% and the viability, T/C [18] was 75.8%. The viability, T/C [19] was 67.8%, the viability, T/C [20] was 66.6% and the viability, T/C (second compound 10 µM, first compound 0.01 µM) was 108%. For the same compound, the viability, T/C [21] was 115%, the viability, T/C [22] was 90.7% and the viability, T/C [23] was 87.6%. For the same compound, the viability, T/C [24] was 79.3% and the viability, T/C [25] was 64.9%.

`CCNC(=O)CC1N=C(c2ccc(Cl)cc2)c2cc(OC)ccc2-n2c(C)nnc21` (stereo not given) + CC1OCC2(CCN(c3cnc(Sc4ccnc(N)c4Cl)c(N)n3)CC2)C1N was tested, and the IC50 (second compound 0.1 µM) was > 10 µM, the IC50 (second compound 0.316 µM) was > 10 µM and the IC50 (second compound 1 µM) was > 10 µM. For the same compound, the IC50 (second compound 3.16 µM) was > 10 µM, the IC50 (second compound 10 µM) was 1.07 µM and the viability, T/C [1] was 84.1%. The viability, T/C [2] was 83.5%, the viability, T/C [3] was 58.9% and the viability, T/C [4] was 73.5%. The viability, T/C [5] was 62.6%, the viability, T/C (second compound 0.1 µM, first compound 10 µM) was 73.3% and the viability, T/C [6] was 102%. For the same compound, the viability, T/C [7] was 90.3%, the viability, T/C [8] was 69.3% and the viability, T/C [9] was 68.1%. The viability, T/C [10] was 56.4%, the viability, T/C (second compound 0.316 µM, first compound 10 µM) was 62.2% and the viability, T/C [11] was 99.5%. For the same compound, the viability, T/C [12] was 86.6%, the viability, T/C [13] was 70.8% and the viability, T/C [14] was 65.9%. It also gave a viability, T/C [15] of 56.4%, a viability, T/C (second compound 1 µM, first compound 10 µM) of 59.8% and a viability, T/C [16] of 106%. The viability, T/C [17] was 103%, the viability, T/C [18] was 77% and the viability, T/C [19] was 62.6%. For the same compound, the viability, T/C [20] was 58%, the viability, T/C (second compound 3.16 µM, first compound 10 µM) was 53.3% and the viability, T/C [21] was 115%. For the same compound, the viability, T/C [22] was 105%, the viability, T/C [23] was 76.4% and the viability, T/C [24] was 50%. It also gave a viability, T/C [25] of 43.2% and a viability, T/C (second compound 10 µM, first compound 10 µM) of 43%.
